Target: T1, N-type Ca2+ channels in IMR-32 cells (Homo sapiens, UniProt Q00975)
T1 construct: host or cells: IMR-32 cells, differentiated with dibutyryl cAMP and bromodeoxyuridine
Assay: Inhibition of N-type calcium flux in IMR-32 cells (Indo-1 fluorescence, nitrendipine present)
Assay type: cell-based
Details: for inhibition at 1 µM / inhibition at 10 µM: IMR-32; for IC50: IMR-32 cells, 5 μM nitrendipine, K+ depolarization
Procedure, shortened: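 Differentiated IMR-32 cells (7–13 days) were loaded with 5 μM Indo-1 AM, preincubated with compound for 10 min at 30° C, and depolarized with KCl/CaCl2 stimulation solution, with 5 μM nitrendipine blocking L-channels. Peak-minus-basal 400/490 nm emission ratio was plotted against drug concentration, and IC50 came from four-parameter logistic fits.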

T1 sequence (Q00975 whole entry): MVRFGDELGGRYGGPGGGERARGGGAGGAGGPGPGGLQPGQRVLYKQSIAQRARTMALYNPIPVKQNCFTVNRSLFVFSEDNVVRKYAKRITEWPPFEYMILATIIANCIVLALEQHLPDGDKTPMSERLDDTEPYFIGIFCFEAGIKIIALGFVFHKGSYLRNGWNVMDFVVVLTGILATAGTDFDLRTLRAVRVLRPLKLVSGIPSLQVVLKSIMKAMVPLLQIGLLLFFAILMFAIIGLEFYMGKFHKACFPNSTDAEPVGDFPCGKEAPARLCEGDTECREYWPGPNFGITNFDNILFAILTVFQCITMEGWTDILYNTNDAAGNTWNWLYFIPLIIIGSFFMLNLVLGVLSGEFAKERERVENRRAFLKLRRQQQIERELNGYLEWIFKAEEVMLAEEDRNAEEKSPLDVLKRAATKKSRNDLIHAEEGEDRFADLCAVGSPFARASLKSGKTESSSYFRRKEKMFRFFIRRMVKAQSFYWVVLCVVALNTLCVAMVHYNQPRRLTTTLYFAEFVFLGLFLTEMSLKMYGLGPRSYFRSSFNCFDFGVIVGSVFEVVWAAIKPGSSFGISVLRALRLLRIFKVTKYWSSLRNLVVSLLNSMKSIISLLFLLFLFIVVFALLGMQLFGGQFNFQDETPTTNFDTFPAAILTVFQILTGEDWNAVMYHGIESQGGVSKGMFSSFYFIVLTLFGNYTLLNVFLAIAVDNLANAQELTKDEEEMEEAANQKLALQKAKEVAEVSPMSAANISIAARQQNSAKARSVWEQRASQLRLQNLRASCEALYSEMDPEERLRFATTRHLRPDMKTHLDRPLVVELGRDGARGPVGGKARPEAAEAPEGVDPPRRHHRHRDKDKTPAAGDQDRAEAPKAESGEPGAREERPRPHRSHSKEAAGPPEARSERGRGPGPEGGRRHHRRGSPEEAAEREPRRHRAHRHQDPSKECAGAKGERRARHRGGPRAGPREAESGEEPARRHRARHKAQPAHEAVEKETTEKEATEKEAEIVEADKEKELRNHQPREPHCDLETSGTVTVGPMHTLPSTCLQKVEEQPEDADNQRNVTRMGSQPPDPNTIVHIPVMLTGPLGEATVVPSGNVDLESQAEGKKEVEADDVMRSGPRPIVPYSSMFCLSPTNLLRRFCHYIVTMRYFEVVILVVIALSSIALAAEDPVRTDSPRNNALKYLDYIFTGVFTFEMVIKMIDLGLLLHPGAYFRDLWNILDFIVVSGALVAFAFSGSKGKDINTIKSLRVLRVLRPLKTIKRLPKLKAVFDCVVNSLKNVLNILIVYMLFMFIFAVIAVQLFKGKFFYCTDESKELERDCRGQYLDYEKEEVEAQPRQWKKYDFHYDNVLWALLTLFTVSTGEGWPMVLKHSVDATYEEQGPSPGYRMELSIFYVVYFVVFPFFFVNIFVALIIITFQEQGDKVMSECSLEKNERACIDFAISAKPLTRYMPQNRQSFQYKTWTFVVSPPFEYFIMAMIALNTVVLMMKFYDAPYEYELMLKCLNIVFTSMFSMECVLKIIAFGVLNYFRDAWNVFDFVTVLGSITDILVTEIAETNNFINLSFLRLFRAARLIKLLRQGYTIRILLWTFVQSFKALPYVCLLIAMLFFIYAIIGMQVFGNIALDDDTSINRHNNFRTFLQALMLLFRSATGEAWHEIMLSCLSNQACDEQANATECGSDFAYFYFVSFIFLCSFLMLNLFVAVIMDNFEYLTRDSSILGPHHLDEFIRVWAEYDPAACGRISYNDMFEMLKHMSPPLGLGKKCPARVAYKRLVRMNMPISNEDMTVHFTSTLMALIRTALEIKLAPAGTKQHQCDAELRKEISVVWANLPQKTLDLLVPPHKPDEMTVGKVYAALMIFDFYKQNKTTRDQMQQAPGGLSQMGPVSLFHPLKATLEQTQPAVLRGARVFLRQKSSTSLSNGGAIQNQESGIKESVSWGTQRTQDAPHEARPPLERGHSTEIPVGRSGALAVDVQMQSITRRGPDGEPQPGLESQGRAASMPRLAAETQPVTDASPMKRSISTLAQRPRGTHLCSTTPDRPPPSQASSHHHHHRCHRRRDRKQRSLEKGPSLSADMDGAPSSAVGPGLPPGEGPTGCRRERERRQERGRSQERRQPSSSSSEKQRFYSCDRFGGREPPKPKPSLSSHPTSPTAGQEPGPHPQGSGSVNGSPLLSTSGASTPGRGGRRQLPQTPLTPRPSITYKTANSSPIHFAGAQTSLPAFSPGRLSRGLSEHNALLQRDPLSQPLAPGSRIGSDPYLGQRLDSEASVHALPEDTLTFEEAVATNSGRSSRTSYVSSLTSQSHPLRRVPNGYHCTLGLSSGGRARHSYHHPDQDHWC
T1 sequence (P54289 25-956 partner limits assumed): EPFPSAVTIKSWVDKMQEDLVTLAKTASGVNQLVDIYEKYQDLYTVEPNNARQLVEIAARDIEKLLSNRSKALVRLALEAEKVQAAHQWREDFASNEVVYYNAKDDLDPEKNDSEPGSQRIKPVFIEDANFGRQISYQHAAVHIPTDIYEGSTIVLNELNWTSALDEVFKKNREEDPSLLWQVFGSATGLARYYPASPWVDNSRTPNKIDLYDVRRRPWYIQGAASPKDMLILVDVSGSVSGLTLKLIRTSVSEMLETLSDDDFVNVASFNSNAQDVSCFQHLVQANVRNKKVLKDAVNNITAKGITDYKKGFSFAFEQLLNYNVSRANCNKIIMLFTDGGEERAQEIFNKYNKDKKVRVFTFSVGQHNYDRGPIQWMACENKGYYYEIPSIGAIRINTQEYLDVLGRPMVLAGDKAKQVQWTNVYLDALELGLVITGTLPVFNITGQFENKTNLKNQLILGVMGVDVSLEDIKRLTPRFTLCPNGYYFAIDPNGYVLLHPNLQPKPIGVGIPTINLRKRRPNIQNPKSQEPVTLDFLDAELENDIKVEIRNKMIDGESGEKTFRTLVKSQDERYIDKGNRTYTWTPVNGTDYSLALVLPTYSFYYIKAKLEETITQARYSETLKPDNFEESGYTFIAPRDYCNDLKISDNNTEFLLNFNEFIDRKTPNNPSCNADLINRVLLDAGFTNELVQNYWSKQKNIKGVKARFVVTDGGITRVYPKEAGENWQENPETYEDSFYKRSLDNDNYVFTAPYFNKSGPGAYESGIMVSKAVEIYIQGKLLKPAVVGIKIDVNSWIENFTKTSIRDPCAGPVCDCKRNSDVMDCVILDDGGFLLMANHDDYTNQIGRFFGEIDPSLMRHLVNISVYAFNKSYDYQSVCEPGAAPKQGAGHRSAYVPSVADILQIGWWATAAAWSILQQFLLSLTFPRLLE
T1 sequence (P54289 957-1103 partner limits assumed): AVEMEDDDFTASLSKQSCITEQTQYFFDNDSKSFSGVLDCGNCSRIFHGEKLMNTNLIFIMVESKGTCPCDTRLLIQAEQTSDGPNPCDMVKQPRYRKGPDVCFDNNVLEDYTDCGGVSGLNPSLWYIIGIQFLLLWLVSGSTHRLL
T1 sequence (P54284 whole entry partner): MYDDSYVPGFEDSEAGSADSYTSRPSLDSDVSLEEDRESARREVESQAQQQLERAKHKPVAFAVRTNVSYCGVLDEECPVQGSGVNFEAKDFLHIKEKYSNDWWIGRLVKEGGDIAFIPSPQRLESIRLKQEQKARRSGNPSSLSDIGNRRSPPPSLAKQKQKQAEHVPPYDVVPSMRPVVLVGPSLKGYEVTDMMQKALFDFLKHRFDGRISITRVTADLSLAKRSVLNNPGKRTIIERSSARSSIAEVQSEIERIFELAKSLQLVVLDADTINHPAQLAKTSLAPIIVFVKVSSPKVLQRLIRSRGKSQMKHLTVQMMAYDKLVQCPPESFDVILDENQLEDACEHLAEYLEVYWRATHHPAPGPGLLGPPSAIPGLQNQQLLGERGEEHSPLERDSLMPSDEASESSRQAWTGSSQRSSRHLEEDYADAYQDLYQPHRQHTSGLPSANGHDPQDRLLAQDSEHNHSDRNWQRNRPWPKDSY

CC(C)CC(NC(=O)N1CCCCCC1)C(=O)NC(Cc1ccc(OCc2ccccc2)cc1)C(=O)NC(C)CN(C)C (stereo not shown) [Example 230, Azepane-1-carboxylic acid {1-[2-(4-benzyloxy-phenyl)-1-(2-dimethylamino-1-methyl-ethylcarbamoyl)-ethylcarbamoyl]-3-methyl-butyl}-amide]
inhibition at 1 µM: 34% | inhibition at 10 µM: 81%

CC(C)C[C@H](NC(=O)c1cnc2ccccc2n1)C(=O)N[C@@H](Cc1ccc(OCc2ccccc2)cc1)C(=O)OC(C)(C)C (relative stereo) [Example 126, [S-(R*,R*)]-3-(4-Benzyloxy-phenyl)-2-{4-methyl-2-[(quinoxaline-2-carbonyl)-amino]pentanoylamino}-propionic acid tert-butyl ester]
Inhibition of Calcium Flux in IMR-32 Cells % Inhibition at 10 μM: 28%

CC(C)C[C@H](NC(=O)Nc1ccc([N+](=O)[O-])cc1)C(=O)N[C@@H](Cc1ccc(OCc2ccccc2)cc1)C(=O)OC(C)(C)C (relative stereo) [Example 55, [S-(R*,R*)]-3-(4-Benzyloxy-phenyl)-2-{4-methyl-2-[3-(4-nitro-phenyl)-ureido]pentanoylamino}-propionic acid tert-butyl ester]
Inhibition of Calcium Flux in IMR-32 Cells % Inhibition at 1 μM: 14% | Inhibition of Calcium Flux in IMR-32 Cells % Inhibition at 10 μM: 46%

CC(C)C[C@H](NC(=O)Nc1cccc(C(F)(F)F)c1)C(=O)N[C@@H](Cc1ccc(OCc2ccccc2)cc1)C(=O)OC(C)(C)C (relative stereo) [Example 76, [S-(R*,R*)]-3-(4-Benzyloxy-phenyl)-2-{4-methyl-2-[3-(3-trifluoromethyl-phenyl)-ureido]-pentanoylamino}-propionic acid tert-butyl ester]
Inhibition of Calcium Flux in IMR-32 Cells % Inhibition at 1 μM: 27%

CC(C)C[C@H](NC(=O)Nc1ccc(Oc2ccccc2)cc1)C(=O)N[C@@H](Cc1ccc(OCc2ccccc2)cc1)C(=O)OC(C)(C)C (relative stereo) [Example 65, [S-(R*,R*)]-3-(4-Benzyloxy-phenyl)-2-{4-methyl-2-[3-(4-phenoxy-phenyl)-ureido]pentanoylamino}-propionic acid tert-butyl ester]
Inhibition of Calcium Flux in IMR-32 Cells % Inhibition at 1 μM: 28%

CC(C)C[C@H](NC(=O)N1CCCCCC1)C(=O)N[C@@H](Cc1ccc(OCc2ccccc2)cc1)C(=O)NC1CC1 [Example 209, [S-(R*,R*)]-Azepane-1-carboxylic acid {1-[2-(4-benzyloxy-phenyl)-1-cyclopropylcarbamoyl-ethylcarbamoyl]-3-methyl-butyl}-amide]
inhibition at 1 µM: 27% | inhibition at 10 µM: 82% | IC50: 2.5 µM

CC(C)C[C@H](NC(=O)N1CCCCCC1)C(=O)N[C@@H](Cc1ccc(OCc2ccccc2)cc1)C(=O)NCC1CC1 [Example 206, [S-(R*,R*)]-Azepane-1-carboxylic acid {1-[2-(4-benzyloxy-phenyl)-1-(cyclopropylmethyl-carbamoyl)-ethylcarbamoyl]-3-methyl-butyl}-amide]
inhibition at 1 µM: 37% | inhibition at 10 µM: 87% | IC50: 1.7 µM

CC(C)C[C@H](NC(=O)N1CCCCCC1)C(=O)N[C@@H](Cc1ccc(OCc2ccccc2)cc1)C(=O)NCCN1CCCC1 [Example 181, [S-(R*,R*)]-Azepane-1-carboxylic acid {1-[2-(4-benzyloxy-phenyl)-1-(2-pyrrolidin-1-ylethylcarbamoyl)-ethylcarbamoyl]3-methyl-butyl}-amide]
IC50: 2.8 µM

CC(C)C[C@H](NC(=O)N1CCCCCC1)C(=O)N[C@@H](Cc1ccc(OCc2ccccc2)cc1)C(=O)N1CC(C)OC(C)C1 (stereo partly drawn) [Example 199, [S-(R*,R*)]-Azepane-1-carboxylic acid {1-[1-(4-benzyloxy-benzyl)-2-(2,6-dimethyl-morpholin-4-yl)-2-oxo-ethylcarbamoyl]-3-methyl-butyl}-amide]
inhibition at 1 µM: 36% | inhibition at 10 µM: 86% | IC50: 1.8 µM

CC(C)C[C@H](NC(=O)c1ccc2c(c1)OCO2)C(=O)N[C@@H](Cc1ccc(OCc2ccccc2)cc1)C(=O)OC(C)(C)C (relative stereo) [Example 97, [S-(R*,R*)]-2-{2-[(Benzo[1,3]dioxole-5-carbonyl)-amino]-4-methyl-pentanoylamino}-3-(4-benzyloxy-phenyl)-propionic acid tert-butyl ester]
Inhibition of Calcium Flux in IMR-32 Cells % Inhibition at 1 μM: 30%

CC(C)C[C@H](NC(=O)Nc1cccc2ccccc12)C(=O)N[C@@H](Cc1ccc(OCc2ccccc2)cc1)C(=O)OC(C)(C)C (relative stereo) [Example 79, [S-(R*,R*)]-3-(4-Benzyloxy-phenyl)-2-[4-methyl-2-(3-naphthalen-1-yl-ureido)-pentanoylamino]-propionic acid tert-butyl ester]
Inhibition of Calcium Flux in IMR-32 Cells % Inhibition at 1 μM: 23%

CC(C)CC(NC(=O)N1CCCCCC1)C(=O)NC(Cc1ccc(OCc2ccccc2)cc1)C(=O)N1CCCC1CNc1ccccc1 (stereo not shown) [Example 218, Azepane-1-carboxylic acid {1-[1-(4-benzyloxy-benzyl)-2-oxo-2-(2-phenylaminomethyl-pyrrolidin-1-yl)-ethylcarbamoyl]-3-methyl-butyl}-amide]
inhibition at 1 µM: 62% | inhibition at 10 µM: 93%

CC(C)C[C@H](NC(=O)c1ccno1)C(=O)N[C@@H](Cc1ccc(OCc2ccccc2)cc1)C(=O)OC(C)(C)C (relative stereo) [Example 123, [S-(R*,R*)]-3-(4-Benzyloxy-phenyl)-2-{2-1(isoxazole-5-carbonyl)-amino]-4-methyl-pentanoylamino}-propionic acid tert-butyl ester]
Inhibition of Calcium Flux in IMR-32 Cells % Inhibition at 10 μM: 67%

CC(C)C[C@H](NC(=O)N1CCCCCC1)C(=O)N[C@@H](Cc1ccc(OCc2ccccc2)cc1)C(=O)Nc1nccs1 [Example 207, [S-(R*,R*)]-Azepane-1-carboxylic acid {1-[2-(4-benzyloxy-phenyl)-1-(thiazol-2-ylcarbamoyl)-ethylcarbamoyl]-3-methyl-butyl}-amide]
inhibition at 1 µM: 21% | inhibition at 10 µM: 59% | IC50: 6.2 µM

CC(C)C[C@H](NC(=O)N1CCCCCC1)C(=O)N[C@@H](Cc1ccc(OCc2ccccc2)cc1)C(=O)N(CCO)Cc1ccccc1 [Example 251, S-(R*,R*)]-Azepane-1-carboxylic acid {1-[1-[benzyl-(2-hydroxy-ethyl)-carbamoyl]-2-(4-benzyloxy-phenyl)-ethylcarbamoyl]-3-methyl-butyl}-amide]
IC50: 0.74 µM

CCN(CC)C(=O)C1CCCN(C(=O)C(Cc2ccc(OCc3ccccc3)cc2)NC(=O)C(CC(C)C)NC(=O)N2CCCCCC2)C1 (stereo not shown) [Example 188, Azepane-1-carboxylic acid {1-[1-(4-benzyloxy-benzyl)-2-(3-diethylcarbamoyl-piperidin-1-yl)-2-oxo-ethylcarbamoyl]-3-methyl-butyl}-amide]
IC50: 0.78 µM

CC(C)C[C@H](NC(=O)N1CCCCCC1)C(=O)N[C@@H](Cc1ccc(OCc2ccccc2)cc1)C(=O)Nc1cccc(O)c1 [Example 269, [S-(R*,R*)]-Azepane-1-carboxylic acid {1-[2-(4-benzyloxy-phenyl)-1-(3-hydroxy-phenylcarbamoyl)-ethylcarbamoyl]-3-methyl-butyl}-amide]
IC50: 2.8 µM

CC(C)C[C@H](NC(=O)N1CCCCCC1)C(=O)N[C@@H](Cc1ccc(OCc2ccccc2)cc1)C(=O)NCCc1c[nH]cn1 [Example 172, [S-(R*,R*)]-Azepane-1-carboxylic acid (1-{2-(4-benzyloxy-phenyl)-1-[2-(1H-imidazol-4-yl)ethylcarbamoyl]-ethylcarbamoyl}-3-methyl-butyl)-amide]
IC50: 2.3 µM

CC(C)C[C@H](NC(=O)N1CCCCCC1)C(=O)N[C@@H](Cc1ccc(OCc2ccccc2)cc1)C(=O)NCc1ccco1 (relative stereo) [Example 220, [S-(R*,R*)]-Azepane-1-carboxylic acid (1-{2-(4-benzyloxy-phenyl)-1-[(furan-2-ylmethyl)-carbamoyl]-ethylcarbamoyl}-3-methyl-butyl)-amide]
Inhibition of Calcium Flux in IMR-32 Cells % Inhibition at 1 μM: 40% | Inhibition of Calcium Flux in IMR-32 Cells % Inhibition at 10 μM: 88%

CC(C)C[C@H](NC(=O)N1CCCCCC1)C(=O)N[C@@H](Cc1ccc(OCc2ccccc2)cc1)C(=O)N1CCCNCC1 [Example 259, [S-(R*,R*)]-Azepane-1-carboxylic acid {1-[2-(4-benzyloxy-phenyl)-1-(1,4]diazepane-1-carbonyl)-ethylcarbamoyl]-3-methyl-butyl}-amide]
IC50: 2.4 µM

CC(C)CC(NC(=O)N1CCCCCC1)C(=O)NC(Cc1ccc(OCc2ccccc2)cc1)C(=O)N1CCCC(O)C1 (stereo not shown) [Example 234, Azepane-1-carboxylic acid {1-[1-(4-benzyloxy-benzyl)-2-(3-hydroxy-piperidin-1-yl)-2-oxo-ethylcarbamoyl]-3-methyl-butyl}-amide]
inhibition at 1 µM: 32% | inhibition at 10 µM: 67%

CCCN1CCCC(NC(=O)C(Cc2ccc(OCc3ccccc3)cc2)NC(=O)C(CC(C)C)NC(=O)N2CCCCCC2)C1 (stereo not shown) [Example 195, Azepane-1-carboxylic acid {1-[2-(4-benzyloxy-phenyl)-1-(1-propyl-piperidin-3-ylcarbamoyl)-ethylcarbamoyl]-3-methyl-butyl}-amide]
IC50: 0.58 µM

COC(=O)[C@H](Cc1ccc(OC(C)(C)C)cc1)NC(=O)[C@H](CC(C)C)NC(=O)N1CCCCCC1 (relative stereo) [Example 22, [S-(R*,R*)]-2-{2-[(Azepane-1-carbonyl)-amino]-4-methyl-pentanoylamino}-3-(4-tert-butoxy-phenyl)-propionic acid methyl ester]
Inhibition of Calcium Flux in IMR-32 Cells % Inhibition at 1 μM: 29%

CC(C)C[C@H](NC(=O)N1CCCCCC1)C(=O)N[C@@H](Cc1ccc(OCc2ccccc2)cc1)C(=O)N1CCC[C@H]1CN1CCCC1 [Example 179, Azepane-1-carboxylic acid {(S)-1-[(S)-1-(4-benzyloxy-benzyl)-2-oxo-2-[(S)-2-pyrrolidin-1-ylmethyl-pyrrolidin-1-yl]-ethylcarbamoyl]-3-methyl-butyl}-amide]
IC50: 1.4 µM

Source: US6423689B1, “Peptidyl calcium channel blockers” (Warner-Lambert Company, priority 1997, dated 2002)
